Where two headings read alike, the source gives them in different places.

Drawing on patent publication EP0554004A2, “Cephem compounds and antibacterial agents” (KATAYAMA SEIYAKUSYO CO. Ltd., priority 1992, dated 1993), this text covers MIC50, MIC90 and MIC for two molecules.

The subject of one test is clinically isolated MRSA. Nature of the test: Antibacterial potency against clinically isolated MRSA (Test Example 4). Type of test: cell-based, methicillin-resistant Staphylococcus aureus. The settings on record: Staphylococcus aureus. On the procedure:
52 strains of clinically isolated MRSA were used, and MIC was determined for each of the strains according to the standard method of the Japan Chemotherapical Society as in Test Example 1. The minimum growth inhibitory concentration which inhibited growth of 50% of the strains tested was expressed as MIC50 (µg/ml), and the minimum growth inhibitory concentration which inhibited growth of 90% of the strains was expressed as MIC90 (µg/ml).
MIC 50 and MIC 90 were determined for each of the 52 strains of clinically isolated MRSA according to the same method as used in Test Example 2.
VCM (vancomycin) was used as control agent.

The subject of the next test is E. coli NIHJ JC-2. Nature of the test: MIC against standard strains (Test Example 3). It is filed as cell-based. The settings on record: Escherichia coli, NIHJJC2. On the procedure:
(§1) By using each test strain cultured overnight at 37°C in a Muller-Hinton broth, there was prepared a bacterial solution with a bacterial cell population of 1 x 10^6 CFU/mi of the same bouillon. The bacterial solution was inoculated into the Muller-Hinton agar media each containing respectively one test agent and, after overnight incubation at 37°C, the minimum concentration that inhibited growth of the bacteria was determined and shown as MIC also in Table 1.
(§2) The minimum growth inhibitory concentration was determined for each of the 21 standard strains shown in Table 3, according to the same method as used in Test Example 1.
(§3) In the test, FMOX (flomoxef), CTM (cefotiam) and CEZ (cefazolin) were used as control agents.

The test system of another test is S. epidemidis IAM1296. Nature of the test: MIC against standard strains (Test Example 3). It is filed as cell-based. As for the experimental part:
as §1, §2, §3

The next test concerns K. pneumoniae IFO3317. Briefly: MIC against standard strains (Test Example 3). It is filed as cell-based. The following applies: Klebsiella pneumoniae. As for the experimental part:
as §1, §2, §3

Another test deals with P. vulugaris OX-19. Briefly: MIC against standard strains (Test Example 3). It is filed as cell-based. On the procedure:
as §1, §2, §3

A further test has as its system A. calcoaceticos T59. Briefly: MIC against standard strains (Test Example 3). It is filed as cell-based. On the procedure:
as §1, §2, §3

The subject of another test is S. aureus 167. Briefly: MIC against standard strains (Test Example 3). Type of test: cell-based. The settings on record: Staphylococcus aureus. As for the experimental part: as §1, §2, §3
The next test has as its system P. aeruginosa NCTC10490. Briefly: MIC against standard strains (Test Example 3). Type of test: cell-based. The following applies: Pseudomonas aeruginosa. On the procedure: as §1, §2, §3
A further test concerns B. subtilis ATCC6633. Nature of the test: MIC against standard strains (Test Example 3). It is filed as cell-based. The following applies: Bacillus subtilis. As for the experimental part:
as §1, §2, §3

Another test concerns E. coli CSH2 (RK1). Nature of the test: MIC against standard strains (Test Example 3). It is filed as cell-based. The settings on record: Escherichia coli. As for the experimental part: as §1, §2, §3
The subject of the next test is S. marcescens IAM1184. Nature of the test: MIC against standard strains (Test Example 3). The following applies: Serratia marcescens. It is filed as cell-based. On the procedure: as §1, §2, §3
A further test deals with S. aureus 209p JC-1. Nature of the test: MIC against standard strains (Test Example 3). It is filed as cell-based. The following applies: Staphylococcus aureus. On the procedure:
as §1, §2, §3

For a further test, the system named is M. luteus ATCC 9341. Briefly: MIC against standard strains (Test Example 3). Type of test: cell-based. The settings on record: Micrococcus luteus, ATCC9341. As for the experimental part:
as §1, §2, §3

A further test deals with A. faecalis ATCC3750. Nature of the test: MIC against standard strains (Test Example 3). Type of test: cell-based. The following applies: Alcaligenes faecalis. On the procedure: as §1, §2, §3
Another test concerns M. Morganii IFO3848. Briefly: MIC against standard strains (Test Example 3). The settings on record: Morganella morganii. Type of test: cell-based. On the procedure:
as §1, §2, §3

The next test concerns K. pneumoniae No. 42. Briefly: MIC against standard strains (Test Example 3). The following applies: Klebsiella pneumoniae. Type of test: cell-based. As for the experimental part:
as §1, §2, §3

The next test relates to E. cloacae ATCC13407. Briefly: MIC against standard strains (Test Example 3). Type of test: cell-based. The settings on record: Enterobacter cloacae. As for the experimental part:
as §1, §2, §3

The next test concerns C. freundii ATCC8090. Briefly: MIC against standard strains (Test Example 3). It is filed as cell-based. The settings on record: Citrobacter freundii. As for the experimental part: as §1, §2, §3
For a further test, the system named is S. aureus 195. Briefly: MIC against standard strains (Test Example 3). The following applies: Staphylococcus aureus. Type of test: cell-based. On the procedure:
as §1, §2, §3

The next test has as its system S. aureus Smith. Briefly: MIC against standard strains (Test Example 3). The settings on record: Staphylococcus aureus. Type of test: cell-based. As for the experimental part:
as §1, §2, §3

A further test concerns P. mirabilis IFO3849. Nature of the test: MIC against standard strains (Test Example 3). Type of test: cell-based. The settings on record: Proteus mirabilis. As for the experimental part:
as §1, §2, §3

For another test, the system named is E. coli CSH2 (RE45). Nature of the test: MIC against standard strains (Test Example 3). It is filed as cell-based. The settings on record: Escherichia coli. On the procedure: as §1, §2, §3

As a reminder, the MIC50 is an inhibitory concentration at the 50% level, which refers to growth in some studies and to a panel of isolates in others. Usually MIC90 stands for an inhibitory concentration at the 90% level, which refers to growth in some studies and to a panel of isolates in others. As usually defined, the MIC is the smallest concentration in the dilution series that meets the test's criterion for growth inhibition. For `NC(=O)Oc1ccc[n+](CC2=C(C(=O)[O-])N3C(=O)[C@@H](NC(=O)/C(=N\O)c4csc(N)n4)[C@H]3SC2)c1` [Compound (8), 7β-[2-(2-aminothiazol-4-yl)-2-syn-hydroxyiminoacetamido]-3-[(3-carbamoyloxy-1-pyridinio)methyl]-3-cephem-4-carboxylic acid chloride], the MIC50 against clinically isolated MRSA (MRSA) is 8.34 µg/mL. Further, in the test with clinically isolated MRSA (MRSA), the MIC90 was 37.9 µg/mL. In addition, the MIC against E. coli NIHJ JC-2 is 0.1 µg/mL; with S. epidemidis IAM1296, 0.39 µg/mL; in the test with K. pneumoniae IFO3317 (IFO3317) it was 0.1 µg/mL; against P. vulugaris OX-19 it was 0.2 µg/mL; in the test with A. calcoaceticos T59 it was 25 µg/mL; against S. aureus 167 (MRSA), 50 µg/mL. In addition, the MIC against P. aeruginosa NCTC10490 (NCTC10490) turned out to be 100 µg/mL; with B. subtilis ATCC6633 (ATCC6633) it was 0.39 µg/mL; in the test on E. coli CSH2 (RK1), 0.39 µg/mL; against S. marcescens IAM1184 (IAM1184) it was 0.39 µg/mL; against S. aureus 209p JC-1 (209P), 0.78 µg/mL; in the test on M. luteus ATCC 9341, 0.1 µg/mL. Further, the MIC against A. faecalis ATCC3750 (ATCC3750) stood at 0.78 µg/mL; in the test with M. Morganii IFO3848 (IFO3848), 0.05 µg/mL; against K. pneumoniae No. 42 (NO.42), 0.39 µg/mL; against E. cloacae ATCC13407 (ATCC13407), 1.56 µg/mL; in the test with C. freundii ATCC8090 (ATCC8090) it was 0.39 µg/mL; against S. aureus 195 (MRSA), 25 µg/mL. For the same molecule, the results for the MIC in the test with S. aureus Smith, in the test on P. mirabilis IFO3849 (IFO3849) and in the test on E. coli CSH2 (RE45) were 1.56 µg/mL, 0.1 µg/mL and 0.2 µg/mL, respectively.
For `Cc1nc(-c2cc[n+](CC3=C(C(=O)[O-])N4C(=O)[C@@H](NC(=O)/C(=N\O)c5csc(N)n5)[C@H]4SC3)cc2)cs1` [Compound (13), 7β-[2-(2-aminothiazol-4-yl)-2-syn-hydroxyiminoacetamido]-3-[[4-(2-methylthiazol-4-yl)-1-pyridinio]methyl]-3-cephem-4-carboxylic acid chloride], in the test on clinically isolated MRSA (52 strains of clinically isolated MRSA, concentration inhibiting growth of 50% of the strains (Test Example 4), read-out: MIC50), the MIC50 amounted to 2.21 µg/mL. In addition, the MIC90 with clinically isolated MRSA (52 strains of clinically isolated MRSA, concentration inhibiting growth of 90% of the strains (Test Example 4), read-out: MIC90) turned out to be 5.51 µg/mL. Besides, the MIC with E. coli NIHJ JC-2 (E. coli NIHJ JC-2 (Test Example 3), read-out: MIC) is 0.2 µg/mL; in the test with S. epidemidis IAM1296 (S. epidemidis IAM1296 (Test Example 3), read-out: MIC) it was 0.2 µg/mL; in the test with K. pneumoniae IFO3317 (K. pneumoniae IFO3317 (Test Example 3), read-out: MIC), 0.1 µg/mL; with P. vulugaris OX-19 (P. vulugaris OX-19 (Test Example 3), read-out: MIC), 0.2 µg/mL; with A. calcoaceticos T59 (A. calcoaceticos T59 (Test Example 3), read-out: MIC), 50 µg/mL; in the test with S. aureus 167 (S. aureus 167 (MRSA) (Test Example 3), read-out: MIC) it was 6.25 µg/mL. Moreover, the minimum inhibitory concentration (MIC) with P. aeruginosa NCTC10490 (P. aeruginosa NCTC10490 (Test Example 3), read-out: MIC) was 12.5 µg/mL; with B. subtilis ATCC6633 (B. subtilis ATCC6633 (Test Example 3), read-out: MIC), 0.2 µg/mL; against E. coli CSH2 (RK1), 0.2 µg/mL; with S. marcescens IAM1184 (S. marcescens IAM1184 (Test Example 3), read-out: MIC), 0.39 µg/mL; in the test on S. aureus 209p JC-1 (S. aureus 209p JC-1 (Test Example 3), read-out: MIC), 0.2 µg/mL; in the test on M. luteus ATCC 9341 (M. luteus ATCC 9341 (Test Example 3), read-out: MIC), 0.05 µg/mL. The minimum inhibitory concentration (MIC) with A. faecalis ATCC3750 (A. faecalis ATCC3750 (Test Example 3), read-out: MIC) turned out to be 1.56 µg/mL; in the test on M. Morganii IFO3848 (M. Morganii IFO3848 (Test Example 3), read-out: MIC) it was 0.05 µg/mL; with K. pneumoniae No. 42 (K. pneumoniae No. 42 (Test Example 3), read-out: MIC), 0.78 µg/mL; in the test on E. cloacae ATCC13407 (E. cloacae ATCC13407 (Test Example 3), read-out: MIC), 0.78 µg/mL; in the test on C. freundii ATCC8090 (C. freundii ATCC8090 (Test Example 3), read-out: MIC), 0.2 µg/mL; in the test with S. aureus 195 (S. aureus 195 (MRSA) (Test Example 3), read-out: MIC), 3.13 µg/mL. The minimum inhibitory concentration (MIC) with S. aureus Smith (S. aureus Smith (Test Example 3), read-out: MIC) worked out at 0.39 µg/mL; with P. mirabilis IFO3849 (P. mirabilis IFO3849 (Test Example 3), read-out: MIC) it was 0.39 µg/mL; with E. coli CSH2 (RE45) it was 0.2 µg/mL.
